# Patent US20210040073A1, “AZABICYCLO-SUBSTITUTED TRIAZOLE DERIVATIVE, PREPARATION METHOD THEREOF, AND APPLICATION OF SAME IN MEDICINE” (Jiangsu Hengrui Medicine Co., Ltd., priority 2016, published 2021)
# Tests used:
# human V1bR = molecular target: T1, human V1bR (Homo sapiens, UniProt P47901); assay: Inhibition activity on human V1bR (Fluo-4 calcium assay, HEK293/human V1bR pool cells, vasopressin 3 nM); type: cell-based; details: calcium signal
# T1 construct: expressed in transfected cells; host or cells: HEK293 (G418-selected pool)
# T1 sequence (P47901 1-424): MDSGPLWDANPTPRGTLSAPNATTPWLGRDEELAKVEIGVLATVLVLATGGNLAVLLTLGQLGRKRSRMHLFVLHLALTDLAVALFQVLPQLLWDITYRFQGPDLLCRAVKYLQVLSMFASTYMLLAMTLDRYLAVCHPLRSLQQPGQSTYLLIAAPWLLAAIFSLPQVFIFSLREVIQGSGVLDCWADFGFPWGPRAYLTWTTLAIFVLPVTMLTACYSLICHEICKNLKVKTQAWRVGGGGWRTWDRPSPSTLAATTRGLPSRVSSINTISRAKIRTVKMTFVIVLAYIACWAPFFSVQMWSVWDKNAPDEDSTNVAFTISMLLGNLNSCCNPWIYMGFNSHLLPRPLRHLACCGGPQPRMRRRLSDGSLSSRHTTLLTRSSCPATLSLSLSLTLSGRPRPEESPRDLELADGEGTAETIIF
# Protocol: The inhibition effect of the compounds of the present invention on the activity of human V1bR protein expressed in HEK293/human V1bR cells was determined by the following experimental method:
# The pcDNA3.1-V1bR plasmid was transferred into HEK293 cells with the Lipofectamine® 3000 transfection reagent; G418 was added on the next day, and the HEK293/human V1bR pool cell lines were obtained.
# (§1) HEK293/human V1bR pool cells were inoculated in a 96-well plate with an inoculation density of 25,000 cells/well one day in advance. On the next day, a loading buffer containing Fluo-4 dye was formulated using the reagents in the Fluo-4 NW calcium assay kit, and the culture medium was then removed; 100 μl of the loading buffer containing Fluo-4 dye were added to each well, and the plate was incubated at 37° C. for 30 minutes. After that, the plate was moved to room temperature and equilibrated for 10 minutes. The compounds were formulated into concentration gradients of 10^6, 10^5, 10^4, 10^3, 10^2 and 10^1 nM. 1 μl of the compounds in each concentration was added to each well, and the plate was incubated at room temperature for 10 minutes. […] IC50 values of the compounds were calculated by Graphpad prism software using fluorescence signals corresponding to different concentrations.
# human OTR = molecular target: T2, human OTR (Homo sapiens, UniProt P30559); assay: Inhibition activity on human OTR (Fluo-4 calcium assay, HEK293/human OTR stably transfected cells, oxytocin 3 nM); type: cell-based; details: calcium signal
# T2 construct: expressed in transfected cells
# T2 sequence (P30559 1-389): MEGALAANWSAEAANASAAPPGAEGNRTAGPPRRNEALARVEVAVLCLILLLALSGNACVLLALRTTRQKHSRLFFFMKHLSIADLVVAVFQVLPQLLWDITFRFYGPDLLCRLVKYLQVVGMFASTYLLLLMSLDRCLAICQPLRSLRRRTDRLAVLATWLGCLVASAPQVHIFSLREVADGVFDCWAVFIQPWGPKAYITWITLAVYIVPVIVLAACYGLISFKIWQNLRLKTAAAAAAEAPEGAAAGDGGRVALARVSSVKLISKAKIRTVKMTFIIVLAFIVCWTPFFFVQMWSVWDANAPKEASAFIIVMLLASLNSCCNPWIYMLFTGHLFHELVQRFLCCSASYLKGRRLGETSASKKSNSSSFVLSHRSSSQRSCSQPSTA
# Protocol: The inhibition effect of the compounds of the present invention on the activity of human OTR protein expressed in HEK293/human OTR stably transfected cells was determined by the following experimental method:
# The pcDNA3.1-hOTR plasmid was transferred into HEK293 cells with the Lipofectamine® 3000 transfection reagent; G418 was added on the next day to screen, and monoclonal cell lines were selected.
# HEK293/human OTR stably transfected cells were inoculated in a 96-well plate with an inoculation density of 25,000 cells/well one day in advance. On the next day, a loading buffer containing Fluo-4 dye was formulated using the reagents in the Fluo-4 NW calcium assay kit, and the culture medium was then removed; 100 μl of the loading buffer containing Fluo-4 dye were added to each well, and the plate was incubated at 37° C. for 30 minutes. After that, the plate was moved to room temperature and equilibrated for 10 minutes. The compounds were formulated into concentration gradients of 10^6, 10^5, 10^4, 10^3, 10^2 and 10^1 nM. 1 μl of the compounds in each concentration was added to each well, and the plate was incubated at room temperature for 10 minutes. 50 μl of oxytocin polypeptide (3 nM) were automatically added by the machine, and the values were immediately detected at 494/516 nM by the flexstation 3 microplate reader. IC50 values of the compounds were calculated by Graphpad prism software using fluorescence signals corresponding to different concentrations.
# The inhibition activity of the compounds of the present invention on human OTR was determined by the above test, and the obtained IC50 values are shown in Table 1.
# human V2R = molecular target: T3, human V2R (Homo sapiens, UniProt P30518); assay: Inhibition activity on human V2R (cAMP HTRF assay, HEK293/human V2R pool cells, vasopressin); type: cell-based
# T3 construct: expressed in transfected cells; host or cells: HEK293 (G418-selected pool)
# Protocol: The inhibition effect of the compounds of the present invention on the activity of human V2R protein expressed in HEK293/human V2R cells was determined by the following experimental method:
# The pcDNA3.1-V2R plasmid was transferred into HEK293 cells with the Lipofectamine® 3000 transfection reagent; G418 was added on the next day, and the HEK293/human V2R pool cell lines were obtained.
# HEK293/human V2R pool cells were digested with the cell dissociation solution (enzyme-free), thereby dissociating the cells from the cell culture dish into individual cells. After completion, the cell solution was blown well, and centrifuged to remove the supernatant. The cells were re-suspended in the test buffer 1 (1×HBSS+20 mM HEPES+0.1% BSA) and counted. The cell density was adjusted to 1250 cells/5 μl, i.e., 2.5*10^5/ml.
# The compounds were formulated into a series of concentrations of 20 mM, 6.67 mM, 2.22 mM, 0.74 mM, 0.25 mM, 0.08 mM, 27.4 μM, 9.14 μM, 3.05 μM, 1.02 μM, 0.34 μM and 0 μM (DMSO) with pure DMSO. The compounds were then formulated into a 4-fold use concentration with the test buffer 2 (test buffer 1+1 mM IBMX).
# Agonist: 460 μM vasopressin was used as the mother liquor, formulated as a 2 μM solution with DMSO, which was then diluted to a 0.5 nM solution with the test buffer 2.
# Standard: The first point was 20 μl of a stock solution (2848 nM), which was diluted successively to a total of eleven concentrations in a 4-fold concentration gradient with the test buffer 1 from the second point.
# 1. The well-mixed cells were added to a 384-well plate (5 μl/well) without changing the tip.
# 2. The test compounds and positive compound formulated were added (2.5 μl/well), and the tips were changed.
# 3. The plate was centrifuged at 1000 rpm for 1 min, shaken for 30 sec to mix well, and incubated at room temperature for 30 min.
# 4. The standard curve wells were added with the test buffer 2 (5 μl/well).
# 5. The agonist formulated was added (2.5 μl/well), and the tips were changed; the plate was centrifuged at 1000 rpm for 1 min, shaken for 30 sec to mix well, and incubated at room temperature for 30 min.
# 6. cAMP-d2 (a component in the cAMP dynamic 2 kit) and Anti-cAMP-Eu-Cryptate (a component in the cAMP dynamic 2 kit) were formulated in the dark, which were then mixed well with cAMP lysate (a component in the cAMP dynamic 2 kit) in a ratio of 1:4. Each well was added with the formulated cAMP-d2 solution (5 μl/well), followed by addition of Anti-cAMP-Eu-Cryptate (5 μl/well). The plate was shaken for 30 sec to mix well, and incubated in the dark at room temperature for 1 h.
# 4) Plate reading: The HTRF signals were read by the PheraStar multi-function microplate reader.
# The data in this test was processed using the data processing software Graphpad Prism.
# The inhibition activity of the compounds of the present invention on human V2R was determined by the above test, and the obtained IC50 values are shown in Table 4.
# human V1aR = molecular target: T4, human V1aR (Homo sapiens, UniProt P37288); assay: Inhibition activity on human V1aR (Fluo-4 calcium assay, HEK293/human V1aR stably transfected cells, vasopressin 3 nM); type: cell-based; details: calcium signal
# T4 construct: expressed in transfected cells
# Protocol: The inhibition effect of the compounds of the present invention on the activity of human V1aR protein expressed in HEK293/human V1aR stably transfected cells was determined by the following experimental method:
# The pcDNA3.1-V1aR plasmid was transferred into HEK293 cells with the Lipofectamine® 3000 transfection reagent; G418 was added on the next day to screen, and monoclonal cell lines were selected.
# as §1, with “V1aR stably transfected” for “V1bR pool”
# The inhibition activity of the compounds of the present invention on human V1aR was determined by the above test, and the obtained IC50 values are shown in Table 2.
# [1] = Pharmacokinetics assay in rats after intragastrical administration; details: both, Sprague-Dawley, rat, plasma, po, 2 mg/kg
# Protocol: Rats were used as test animals. […] The pharmacokinetic behavior of the compounds of the present invention was studied and evaluated in rats.
# After an overnight fast, SD rats were administered intragastrically the test compounds at an administration dosage of 2.0 mg/kg and an administration volume of 10.0 mL/kg.
# 0.2 mL of blood was taken from the orbital sinus before administration and at 0.5, 1.0, 2.0, 4.0, 6.0, 8.0, 11.0 and 24.0 hours after administration. The samples were stored in heparinized tubes, and centrifuged for 10 minutes at 4° C. at 3,500 rpm to separate the blood plasma. The plasma samples were stored at −20° C. The rats were fed 2 hours after administration.
# The content of the test compounds in the plasma of rats after intragastrical administration of the test compounds at different concentrations was determined: 25 μL of rat plasma at each time after administration was taken, added with 50 μL of the internal standard solution of camptothecin (100 ng/mL) and 200 μL of acetonitrile, vortex-mixed for 5 minutes, and centrifuged for 10 minutes (4000 rpm). 1.0 μL of the supernatant was taken from the plasma samples for LC/MS/MS analysis.
# T4 sequence (P37288 whole entry): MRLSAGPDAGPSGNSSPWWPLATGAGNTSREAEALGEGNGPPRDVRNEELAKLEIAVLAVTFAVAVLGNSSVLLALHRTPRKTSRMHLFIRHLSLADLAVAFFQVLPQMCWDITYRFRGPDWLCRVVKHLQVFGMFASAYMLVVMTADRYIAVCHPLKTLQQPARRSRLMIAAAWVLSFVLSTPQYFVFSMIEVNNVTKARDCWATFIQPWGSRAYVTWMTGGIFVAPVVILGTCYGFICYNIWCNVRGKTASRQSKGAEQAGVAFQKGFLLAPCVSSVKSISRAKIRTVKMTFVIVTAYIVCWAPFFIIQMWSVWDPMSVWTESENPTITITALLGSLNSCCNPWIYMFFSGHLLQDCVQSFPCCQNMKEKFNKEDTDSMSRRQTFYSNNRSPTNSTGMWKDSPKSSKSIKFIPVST
# T3 sequence (P30518 whole entry): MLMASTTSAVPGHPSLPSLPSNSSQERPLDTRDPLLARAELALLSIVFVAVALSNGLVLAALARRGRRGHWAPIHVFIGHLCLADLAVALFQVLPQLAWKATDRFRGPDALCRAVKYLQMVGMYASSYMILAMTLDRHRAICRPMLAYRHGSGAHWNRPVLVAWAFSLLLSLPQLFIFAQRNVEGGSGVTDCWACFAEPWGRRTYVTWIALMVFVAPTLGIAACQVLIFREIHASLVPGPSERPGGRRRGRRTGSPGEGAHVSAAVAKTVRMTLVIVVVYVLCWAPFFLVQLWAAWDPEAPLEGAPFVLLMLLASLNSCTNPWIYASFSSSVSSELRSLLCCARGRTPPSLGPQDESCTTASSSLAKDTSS
SMILES,IC50 (human V1bR),IC50 (human OTR),IC50 (human V2R),IC50 (human V1aR),AUC [1],CL/F [1],Cmax [1],MRT [1],Vd/F [1],half-life [1]
"[2H]C([2H])([2H])OCc1nnc(N2C[C@@H]3C[C@]3(c3ccc(F)cc3Cl)C2)n1-c1ccc(OC)nc1 [Example 14, (1S,5R)-1-(2-Chloro-4-fluorophenyl)-3-(5-((methoxy-d3)methyl)-4-(6-methoxypyridin-3-yl)-4H-1,2,4-triazol-3-yl)-3-azabicyclo[3.1.0]hexane]",20.5 µM,0.068 µM,10.4 µM,–,–,–,–,–,–,–
"COc1ccc(-n2c(C(F)F)nnc2N2C[C@@H]3C[C@]3(c3ccc(F)cc3Cl)C2)cn1 [Example 13, (1S,5R)-1-(2-Chloro-4-fluorophenyl)-3-(5-(difluoromethyl)-4-(6-methoxypyridin-3-yl)-4H-1,2,4-triazol-3-yl)-3-azabicyclo[3.1.0]hexane]",–,0.052 µM,–,1.9 µM,–,–,–,–,–,–
"COCc1nnc(N2C[C@@H]3C[C@]3(c3ccc(F)cc3Cl)C2)n1-c1ccc2c(c1)OCO2 [Example 5, (1S,5R)-3-(4-(Benzo[d][1,3]dioxol-5-yl)-5-(methoxymethyl)-4H-1,2,4-triazol-3-yl)-1-(2-chloro-4-fluorophenyl)-3-azabicyclo[3.1.0]hexane]",–,0.131 µM,–,1 µM,–,–,–,–,–,–
"COc1ccc(-n2c(COC3CCOCC3)nnc2N2C[C@@H]3C[C@]3(c3ccc(F)cc3Cl)C2)cn1 [Example 2, (1S,5R)-1-(2-Chloro-4-fluorophenyl)-3-(4-(6-methoxypyridin-3-yl)-5-(((tetrahydro-2H-pyran-4-yl)oxy)methyl)-4H-1,2,4-triazol-3-yl)-3-azabicyclo[3.1.0]hexane]",–,–,–,4.7 µM,–,–,–,–,–,–
"COc1ccc(-n2c(CO[C@H]3CCOC3)nnc2N2C[C@@H]3C[C@]3(c3ccc(F)cc3Cl)C2)cn1 [Example 3, (1S,5R)-1-(2-Chloro-4-fluorophenyl)-3-(4-(6-methoxypyridin-3-yl)-5-((((S)-tetrahydrofuran-3-yl)oxy)methyl)-4H-1,2,4-triazol-3-yl)-3-azabicyclo[3.1.0]hexane]",56.7 µM,–,23 µM,7.5 µM,–,–,–,–,–,–

# More lines, now with the values ahead:
IC50 (human V1bR),IC50 (human OTR),IC50 (human V2R),IC50 (human V1aR),AUC [1],CL/F [1],Cmax [1],MRT [1],Vd/F [1],half-life [1],SMILES
12.4 µM,–,90 µM,2 µM,–,–,–,–,–,–,"COc1ccc(-n2c(C)nnc2N2C[C@@H]3C[C@]3(c3ccc(F)cc3Cl)C2)cn1 [Example 7, (1S,5R)-1-(2-Chloro-4-fluorophenyl)-3-(4-(6-methoxypyridin-3-yl)-5-methyl-4H-1,2,4-triazol-3-yl)-3-azabicyclo[3.1.0]hexane]"
43.3 µM,0.023 µM,–,3 µM,1980 ± 1020 ng·h/mL,23.3 ± 18 mL/min/kg,635 ± 273 ng/mL,2.18 ± 0.24 h,1.94 ± 0.983 L/kg,1.08 ± 0.21 h,"COCc1nnc(N2CC3CC3(c3ccc(F)cc3Cl)C2)n1-c1ccc(OC)nc1 (stereo not drawn) [Example 8, 1-(2-Chloro-4-fluorophenyl)-3-(5-(methoxymethyl)-4-(6-methoxypyridin-3-yl)-4H-1,2,4-triazol-3-yl)-3-azabicyclo[3.1.0]hexane]"
7.8 µM,0.001 µM,6.8 µM,–,3980 ± 2970 ng·h/mL,12.6 ± 8.03 mL/min/kg,405 ± 110 ng/mL,5.82 ± 2.73 h,2.46 ± 0.706 L/kg,2.86 ± 1.27 h,"COc1ccc(-n2c(COC(F)F)nnc2N2C[C@@H]3C[C@]3(c3ccc(F)cc3Cl)C2)cn1 [Example 11, (1S,5R)-1-(2-Chloro-4-fluorophenyl)-3-(5-((difluoromethoxy)methyl)-4-(6-methoxypyridin-3-yl)-4H-1,2,4-triazol-3-yl)-3-azabicyclo[3.1.0]hexane]"
–,0.624 µM,–,–,–,–,–,–,–,–,"COCc1nnc(N2C[C@H]3C[C@@]3(c3ccc(F)cc3Cl)C2)n1-c1ccc(OC)nc1 [Example 10, (1R,5S)-1-(2-Chloro-4-fluorophenyl)-3-(5-(methoxymethyl)-4-(6-methoxypyridin-3-yl)-4H-1,2,4-triazol-3-yl)-3-azabicyclo[3.1.0]hexane]"
